Measured values: patent US11192899B2 (MERCK PATENT GMBH, priority 2017, dated 2021)
pIC50: −log10 of the molar value. Like-named read-outs stand apart in the source and are kept apart here.

Legend:
human A3 receptor = biological target: T1, human A3 receptor (Homo sapiens, UniProt P0DMS8); test: cAMP HTRF functional assay, recombinant CHO cells expressing human A3 receptor, forskolin and agonist IB-MECA; assay type: cell-based
T1 construct: expressed in transfected cells; host or cells: CHO
T1 sequence (P0DMS8 1-318): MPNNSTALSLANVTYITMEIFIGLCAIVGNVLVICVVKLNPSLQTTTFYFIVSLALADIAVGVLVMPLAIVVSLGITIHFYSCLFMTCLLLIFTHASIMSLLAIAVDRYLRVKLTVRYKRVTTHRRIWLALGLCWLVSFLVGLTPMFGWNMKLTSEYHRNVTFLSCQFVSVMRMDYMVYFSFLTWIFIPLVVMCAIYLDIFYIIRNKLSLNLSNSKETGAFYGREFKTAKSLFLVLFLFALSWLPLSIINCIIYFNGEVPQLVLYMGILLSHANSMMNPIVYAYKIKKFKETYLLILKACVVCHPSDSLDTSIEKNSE
Procedure: (§1) The functional activities of human A2A, A2B, A1 and A3 receptors were determined by quantification of cAMP, being the second messenger for adenosine receptors.
(§2) For human A1 and A3 receptors, recombinant CHO cells, expressing either A1 or A3-receptor, were used. As both receptors couple to Gi proteins, the assay protocol was adapted:
(§3) Cells were seeded into 384-well plates, forskolin, test compounds and agonists (CPA for A1- and IB-MECA for A3-receptor) were added. After 30 min incubation, HTRF reagents (cAMP dynamic 2, Cis Bio) were added and the cellular cAMP levels were determined using the ENVISION (Perkin Elmer) plate reader.
(§4) Obtained raw data were normalized against the inhibitor control and the neural control (DMSO) and the normalized data were fitted using GeneData software.

human A1 receptor = biological target: T2, human A1 receptor (Homo sapiens, UniProt P30542); test: cAMP HTRF functional assay, recombinant CHO cells expressing human A1 receptor, forskolin and agonist CPA; assay type: cell-based
T2 construct: expressed in transfected cells; host or cells: CHO
T2 sequence (P30542 1-326): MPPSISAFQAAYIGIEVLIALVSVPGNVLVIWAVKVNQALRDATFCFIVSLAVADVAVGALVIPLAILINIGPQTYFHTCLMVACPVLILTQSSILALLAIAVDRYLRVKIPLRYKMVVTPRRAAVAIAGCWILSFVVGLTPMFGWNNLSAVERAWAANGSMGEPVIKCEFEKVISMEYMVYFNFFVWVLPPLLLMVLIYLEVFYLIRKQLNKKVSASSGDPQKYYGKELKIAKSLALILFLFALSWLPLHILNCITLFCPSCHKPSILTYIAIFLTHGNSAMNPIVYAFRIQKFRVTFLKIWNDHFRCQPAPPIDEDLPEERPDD
Procedure: as §1, §2, §3, §4

A2B receptors [1] = biological target: T3, A2B receptors (Homo sapiens, UniProt P29275); test: cAMP HTRF functional assay, recombinant HEK293 cells expressing human A2B receptor, agonist NECA; assay type: cell-based; design: expressed in transfected cells; host or cells: HEK293
T3 sequence (P29275 1-332): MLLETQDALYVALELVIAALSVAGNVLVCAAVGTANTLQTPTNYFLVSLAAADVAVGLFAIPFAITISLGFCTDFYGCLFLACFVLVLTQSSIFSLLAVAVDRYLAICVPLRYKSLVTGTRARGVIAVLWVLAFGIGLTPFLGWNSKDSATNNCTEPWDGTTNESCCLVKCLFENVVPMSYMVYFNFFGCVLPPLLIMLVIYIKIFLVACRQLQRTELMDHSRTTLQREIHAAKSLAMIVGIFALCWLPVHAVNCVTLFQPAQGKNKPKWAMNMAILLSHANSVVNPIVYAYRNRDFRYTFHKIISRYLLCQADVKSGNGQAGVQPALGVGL
Procedure: as §1, §4

human A2A receptor = biological target: T4, human A2A receptor (Homo sapiens, UniProt P29274); test: cAMP HTRF functional assay, recombinant HEK293 cells expressing human A2A receptor, agonist NECA; assay type: cell-based
T4 construct: expressed in transfected cells; host or cells: HEK293
T4 sequence (P29274 whole entry): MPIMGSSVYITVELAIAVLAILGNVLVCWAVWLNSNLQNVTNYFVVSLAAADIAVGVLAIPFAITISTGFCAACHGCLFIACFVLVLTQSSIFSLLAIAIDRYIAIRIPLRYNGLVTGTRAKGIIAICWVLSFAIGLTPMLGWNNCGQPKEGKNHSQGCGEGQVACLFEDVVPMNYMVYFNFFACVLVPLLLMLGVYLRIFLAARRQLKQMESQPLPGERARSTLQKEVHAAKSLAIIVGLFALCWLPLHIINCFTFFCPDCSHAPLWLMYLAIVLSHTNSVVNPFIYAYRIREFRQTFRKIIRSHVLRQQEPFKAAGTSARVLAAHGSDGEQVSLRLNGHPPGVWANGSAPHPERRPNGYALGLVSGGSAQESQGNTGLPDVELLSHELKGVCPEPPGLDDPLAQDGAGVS
Procedure: as §1, §4

[2] = pharmacokinetics in mouse after single intravenous and oral administration; settings: for Feces iv [%]: iv @ 0.2, excretion as % of dose; for Vd / clearance / half-life / Cmax: female, mouse; for Vd / clearance / half-life: 0.2 mg/kg; for Cmax: 1 mg/kg
Description: Female Wistar rats/mice (n=6) received either a single intravenous (bolus) injection or an oral administration (by gavage) of the tested compound.
The concentrations of the compounds in plasma, feces were quantified using an UPLC method with tandem mass spectrometric detection (LC-MS/MS) previously developed at the ‘Institute of Drug Metabolism and Pharmacokinetics’. The LCMS/MS system consisted of a Waters Acquity UPLC coupled to an AB Sciex mass spectrometer API 5500 Q-trap. […] The detection of the compounds was performed using multiple reaction monitoring in the positive ionization mode. Plasma samples were spiked with internal standard (20 μl) and the analyte was extracted from the matrix using tertiary-butyl methyl ether (tBME). The organic phase was evaporated to dryness under a stream of nitrogen. The residue was dissolved in acetonitrile/0.1% formic acid for LC-MS/MS analysis. Feces samples were homogenized with 4-times their volume of an ethanol/water mixture (4:1, v/v). Aliquots of the aqueous-ethanolic extracts were spiked with internal standard, diluted with acetonitrile/water (1:1, v/v) and directly injected into the LC-MS/MS system.
Pharmacokinetic parameters Cmax and tmax were taken from the observed data. […] AUC values were calculated by non-compartmental analysis using the linear up/log down method. Numerical data for mean plasma concentrations and derived pharmacokinetic parameters were rounded to 3 significant digits for presentation.

A2B receptors [3] = biological target: T3, A2B receptors; settings: cited from earlier work
mouse Pan T cells = test: rescue of cytokine (IL-2, IFN-γ) secretion of CD3/CD28-activated mouse Pan T cells inhibited by CGS-21680; assay type: cell-based; settings: for pIC50: Mus musculus, T-cell
Description: Adenosine (Ado) in tumor microenvironment can inhibit T cell activity by signaling through A2A receptors and suppress cytokine secretion by T cells. […] Potential A2A antagonists or A2A/A2B dual antagonists can rescue T cells from this inhibition. Herein, we describe the in vitro system we established using Pan T cells from mouse spleens to screen potential A2A antagonists or A2A/A2B dual antagonists for their activity. The method described involves the use of CD3/CD28 pre-coated beads to stimulate Pan T cells purified from mouse splenocytes, combined with the addition of A2A agonist along with potential A2A or A2A/A2B dual antagonists to evaluate potentiation of T cell cytokine production.
Briefly, mouse Pan T cells are purified from spleens of BALB/c mice using Pan T cell isolation kit Mouse II (MACS Miltenyi biotech Cat #Order no. 130-095-130) according to manufacturer's protocol. The purified T cells are seeded in Nunc™ 96-Well Polystyrene Round Bottom Microwell Plates in RPMI medium with 10% heat inactivated fetal bovine serum. The cells are rested at 37° C. for 1 h before activating with CD3/CD28 pre-coated beads (Dynabeads™ Mouse T-Activator CD3/CD28; Cat #11456D). After 30 min the cells are treated with varying doses of test antagonist(s). […] After 24 h incubation IL-2 levels in the supernatants and after 48 h incubation IFN-γ levels in the supernatants are measured by ELISAs according to manufacturer's protocol (R&D systems Cat #DY402 (IL-2); DY485 (IFN-γ)). Once the concentrations are calculated, the difference of cytokine concentration of DMSO control and agonist alone control is calculated (called Δ) and the percentage of rescue by each concentration of antagonist is calculated by using Microsoft Excel. These percentages of cytokine rescue in a dose dependent manner of antagonist is plotted in GraphPad Prism software and IC50 is calculated.

[4] = 24 h, read-out: Mouse T-Cell IL-2
[5] = recombinant HEK293 cells, cAMP, agonist NECA

Molecule | pIC50 (human A3 receptor) | pIC50 (human A1 receptor) | pIC50 (A2B receptors [1]) | pIC50 (human A2A receptor) | Feces iv [%] ([2]; PK data in mouse) | Vd ([2]; plasma, iv) [L/kg] | clearance ([2]; plasma, iv) [mL/min/kg] | other results
CCCn1c(=O)[nH]c(=O)c2[nH]cnc21 [enprofylline, 3-n-propylxanthine] |  |  |  |  |  |  |  | affinity for A2B receptors (A2B receptors [3]): mid to high nM range
COc1ccc(C2CCOCC2)c2ncc(NC(=O)N3CCC(C)(O)CC3)nc12 [compound 5] | < 6.00 | < 6.00 | < 6.00 | > 7.00 | 4.2 @ 0.2% | 1.24 | 19.7 | CMax (iv) @ 1 mg/kg ([2]; PK data in mouse, iv): 908 ng/mL; half-life ([2]; in vivo, iv): 0.92 h
COc1ccc(N2CCOCC2)c2sc(NC(=O)N3CCC(C)(O)CC3)nc12 [Tozadenant, reference compound] |  |  |  |  | 23 @ 0.2% |  |  | Mouse IFN-γ [nM] (mouse Pan T cells; IFN-γ rescue, 48 h, CGS-21680 1 μM, BALB/c Pan T cells): NA (< 50% rescue); Mouse T-Cell IL-2 [nM] (mouse Pan T cells; IL-2 rescue, 24 h, CGS-21680 1 μM, BALB/c Pan T cells): NA (< 50% rescue); CL ([2]; PK data in mouse, iv): 1478 mL/min/kg; Vss [L/kg] ([2]; PK data in mouse, iv): 2,03 L/kg; t1/2 [h] ([2]; PK data in mouse, iv): 0,184 h; CMax (iv) @ 1 mg/kg ([2]; PK data in mouse, iv): 337 ng/mL
O=c1[nH]c(=O)c2nc3ccccc3nc2[nH]1 [alloxazine, 2,4-dioxobenzopteridine] |  |  |  |  |  |  |  | affinity for A2B receptors (A2B receptors [3]): mid to high nM range
4-hydroxy-N-[8-methoxy-5-(2-methylphenyl)quinoxalin-2-yl]-4-methylpiperidine-1-carboxamide [compound 29] | < 6.00 | < 6.00 |  |  |  |  |  | pIC50 (A2B receptors [1]; [5]): > 6.00; pIC50 (human A2A receptor; [5]): > 7.00
CCCn1c(=O)c2[nH]c(-c3ccc(S(=O)(=O)O)cc3)nc2n(CCC)c1=O [DPSPX, 1,3-dipropyl-8-sulphophenylxanthine] |  |  |  |  |  |  |  | affinity for A2B receptors (A2B receptors [3]): mid to high nM range

Continued, in another order:

pIC50 (human A3 receptor) | pIC50 (human A1 receptor) | pIC50 (A2B receptors [1]) | pIC50 (human A2A receptor) | Feces iv [%] ([2]; PK data in mouse) | Vd ([2]; plasma, iv) [L/kg] | clearance ([2]; plasma, iv) [mL/min/kg] | Molecule | other results
< 6.00 | > 6.00 | < 6.00 | > 7.00 | 1.8 @ 0.2% | 0.811 | 18.2 | C#CCC1(O)CCN(C(=O)Nc2cnc3c(C4CCOCC4)ccc(OC)c3n2)CC1 [compound 10] | half-life ([2]; plasma, iv): 0.55 h; Cmax ([2]; plasma, iv): 1090 ng/mL
< 6.00 | < 6.00 | < 6.00 | > 7.00 | 12.5 @ 0.2% | 1.13 | 5.65 | COc1ccc(-c2ccccc2)c2ncc(NC(=O)N3CCC(C)(O)CC3)nc12 [compound 2, 4-Hydroxy-4-methyl-piperidine-1-carboxylic acid (8-methoxy-5-phenyl-quinoxalin-2-yl)-amide] | pIC50 (mouse Pan T cells; [4]): 6.40; pIC50 (mouse Pan T cells; 48 h, read-out: Mouse IFN-γ): 6.22; half-life ([2]; plasma, iv): 2.37 h; Cmax ([2]; plasma, iv): 732 ng/mL
< 6.00 | < 6.00 | < 6.00 | > 7.00 |  |  |  | COc1ccc(C2CCOCC2)c2ncc(NC(=O)c3coc(C)n3)nc12 [compound 16] | 
< 6.00 | < 6.00 | < 6.00 | > 7.00 |  |  |  | COCCOCc1cccc(-c2ccc(OC)c3nc(NC(=O)N4CCC(C)(O)CC4)cnc23)c1 [compound 118, 4-hydroxy-N-(8-methoxy-5-{3-[(2-methoxyethoxy)methyl]phenyl}quinoxalin-2-yl)-4-methylpiperidine-1-carboxamide] | 
< 6.00 | > 6.00 | < 6.00 | > 7.00 | 6.2 @ 0.2% | 0.82 | 3.78 | COc1ncc(-c2ccccc2)c2ncc(NC(=O)N3CCC(C)(O)CC3)nc12 [compound 27, 4-Hydroxy-4-methyl-piperidine-1-carboxylic acid (5-methoxy-8-phenyl-pyrido[3,4-b]pyrazin-3-yl)-amide] | pIC50 (mouse Pan T cells; [4]): 6.43; pIC50 (mouse Pan T cells; 48 h, read-out: Mouse IFN-γ): 6.48; half-life ([2]; plasma, iv): 2.56 h; Cmax ([2]; plasma, iv): 983 ng/mL
> 6.00 | > 6.00 | > 7.00 | > 8.00 |  |  |  | COc1ccc(-c2ccccc2)c2ncc(NC(=O)c3cnc(C)o3)nc12 [compound 105, N-(8-methoxy-5-phenylquinoxalin-2-yl)-2-methyl-1,3-oxazole-5-carboxamide] | 
